Results taken from patent US20260001863A1, “NOVEL PYRIDAZINES” (Boehringer Ingelheim International GmbH, priority 2019, published 2026).

Assays:
plasma LPA = experiment: Assay C: In Vivo (plasma LPA reduction after oral dosing); settings: rats, oral 5 mg/kg, plasma 8 hours post application vs baseline; sum of LPA 16:0, 18:0, 18:1, 18:2, 20:4
Experimental: The test substance was solubilized in 0.5% natrosol supplemented with 0.015% Tween 80 for oral application to rats at a dose of 5 mg/kg. Blood samples were collected before compound administration and 8 hours post application on ice using EDTA as coagulation agent. Subsequently, plasma was prepared by centrifugation and stored until analysis at −20° C.
LPAs from plasma samples were extracted by using the procedure described by Scherer et al. (Clinical chemistry 2009, 55, 1218-22). 35 μL of heparinized plasma was mixed with 200 μL 40 mM disodium hydrogen phosphate buffer containing 30 mM citric acid (pH 4) and 1 μM 17:0 LPA (internal standard). Subsequently, 500 μL butanol was added and shaken vigorously for 10 min. Samples were centrifuged afterwards at 4000 rpm, 4° C., for 10 min. 500 μL of the organic upper phase was transferred to a fresh 96-deep-well plate and evaporated with a gentle nitrogen flow of 15 psi for 45 min. The resultant residual was dissolved in 100 μL ethanol prior to LC-MS analysis.
A Triple Quad 6500 (ABSciex, Toronto, Canada) was equipped with an Agilent 1290 LC system (Agilent, Santa Clara, CA) a CTC autosampler and an Atlantis 50×2.1-mm, 3-μm HILIC LC column (Waters, Elstree, UK). Eluent A contained 0.2% formic acid and 50 mM ammonium formate in water, whereas eluent B consisted of 0.2% formic acid in acetonitrile. […] At 1.8 min, solvent B was set back to 95% and stayed constant for 0.7 min for re-equilibration of the column. The following LPA species were monitored (DP: declustering potential and CE: collision energy): 16:0 LPA at 409.2/152.8, DP=−150, CE=−28; 18:0 LPA at 437.3/152.8, DP=−60, CE=−28; 18:1 LPA at 435.2/152.8, DP=−40, CE=−28; 18:2 LPA at 433.2/152.8, DP=−150, CE=−28; 20:4 LPA at 457.2/152.8, DP=−100, CE=−29 and 17:0 LPA at 423.5/152.8, DP=−100, CE=−36. LPA depletion in percent was calculated based on the baseline LPA levels before test compound application. The sum of LPA refers to the species 16:0; 18:0; 18:1; 18:2 and 20:4

Human ATX = Human ATX (Homo sapiens (Human), UniProt Q13822); experiment: Assay A: Biochemical ATX Assay; settings: 5 nM recombinant ATX, 18:1 LPC substrate, 2 h at room temperature, formation of 18:1 LPA by RapidFire MS
Experimental: 5 nM recombinant ATX (Cayman Chemicals) was supplemented to 50 mM Tris buffer (pH 8.0) containing 3 mM KCl, 1 mM CaCl2, 1 mM MgCl2 0.14 mM NaCl, and 0.1% bovine serum albumin. Test compounds were dissolved in DMSO and tested in the range of 0.1 nM to 10 μM. The enzymatic reaction (22.5 μL) was started by addition of 2.5 μL 10 μM 18:1 LPC (Avanti Lipids, Alabaster, AL, USA). After 2-h incubation at room temperature, the reaction was stopped by addition of 20 μL water containing 500 nM 20:4 LPA as internal standard and 100 μL 1-butanol for extracting LPA. Subsequently, the plates were centrifuged at 4000 rpm, 4° C., for 2 min. The resultant upper butanol phase was directly used for injection at a RapidFire system (Agilent).
The RapidFire autosampler was coupled to a binary pump (Agilent 1290) and a Triple Quad 6500 (ABSciex, Toronto, Canada). […] 1 The MS was operated in negative mode with a source temperature of 550° C., curtain gas=35, gas 1=65, and gas 2=80. The following transitions and MS parameters (DP: declustering potential and CE: collision energy) for the respective LPAs were determined: • 18:1 LPA at 435.2/152.8, DP=−40, CE=−28 and 20:4 LPA at 457.2/152.8, DP=−100, CE=−27).
The formation of 18:1 LPA was monitored and evaluated as ratio to 20:4 LPA.

IC50 (Human ATX) [nM]	SMILES	LPA reduction at 8 h (plasma LPA) [%]
3.4	CC(=O)N1CC2(C1)CN(c1ccc(CNc3ccc(OCc4ccc(C(F)(F)F)nc4)nn3)cc1)C2 [Example 1.1, 1-(6-(4-(((6-((6-(trifluoromethyl)pyridin-3-yl)methoxy)pyridazin-3-yl)amino)methyl)phenyl)-2,6-diazaspiro[3.3]heptan-2-yl)ethan-1-one]	96.5
2.9	CC(=O)N1CC2(C1)CN(c1ccc(CNc3ccc(OCc4ccc(C(F)F)nc4)nn3)cc1)C2 [Example 1.2]	96.7
1.5	CC(=O)N1CCN(c2ccc(CNc3ccc(OCc4ccc(C(F)F)nc4)nn3)cc2F)CC1 [Example 1.3]	
3.3	CC(=O)N1CCN(c2ccc(CNc3ccc(OCc4ccc(C(F)F)nc4)nn3)c(F)c2)CC1 [Example 1.4]	
3.9	CN1CC2(CC1=O)CN(c1ccc(CNc3ccc(OCc4ccc(C(F)F)nc4)nn3)cc1)C2 [Example 1.5]	
6.5	CC(=O)N1CCC2(CC1)CN(c1ccc(CNc3ccc(OCc4ccc(C(F)F)nc4)nn3)cc1)C2 [Example 1.6]	
1.6	CC(=O)N1CCN(c2ccc(CNc3ccc(OCc4ccc(C(F)F)nc4)nn3)cc2)CC1(C)C [Example 1.7]	
	CCc1nc2c(C)cc(N3CCN(CC(=O)N4CC(O)C4)CC3)cn2c1N(C)c1nc(-c2ccc(F)cc2)c(C#N)s1 [Example 2 in WO2014/139882, reference compound]	58.1
2.3	CC(=O)N(C)C1CCN(c2ccc(CNc3ccc(OCc4ccc(C(F)(F)F)nc4)nn3)cc2)CC1 [Example 2.1, N-methyl-N-[1-(4-{[(6-{[6-(trifluoromethyl)pyridin-3-yl]methoxy}pyridazin-3-yl)amino]methyl}phenyl)piperidin-4-yl]acetamide]	
3	CC(=O)N1CCN(c2ccc(CNc3ccc(OCc4ccc(C(F)(F)F)nc4)nn3)cc2)CC1 [Example 2.2]	94.1
2.2	CC(=O)N1CCN(c2ccc(CNc3ccc(OCc4ccc(C(F)F)nc4)nn3)cn2)CC1 [Example 2.3]	
1.9	CC(=O)N1CCN(c2ccc(CNc3ccc(OCc4ccc(C(F)F)nc4)nn3)nc2)CC1 [Example 2.4]	
2.5	CC(=O)N1CCN(c2ccc(CNc3ccc(OCc4ccc(C(F)(F)F)nc4)nn3)cn2)CC1 [Example 2.5]	95.9
1.8	CC(=O)N1CC2CC1CN2c1ccc(CNc2ccc(OCc3ccc(C(F)F)nc3)nn2)cc1 (centres unmarked) [Example 2.6]	
1.9	CC(=O)N1CCN(c2ccc(CNc3ccc(OCc4ccc(C(F)F)nc4)nn3)c(C(F)(F)F)c2)CC1 [Example 2.7]	
2	FC(F)(F)c1ccc(COc2ccc(NCc3ccc(N4CCN(C5COC5)CC4)cc3)nn2)cn1 [Example 2.8]	
3.7	CC(=O)N1CC2(C1)CN(c1ccc(CNc3ccc(OCc4ccc(C(F)(F)F)nc4)nn3)cc1F)C2 [Example 2.9]	

IC50 (Human ATX) [nM]	SMILES	LPA reduction at 8 h (plasma LPA) [%]
1.8	FC(F)c1ccc(COc2ccc(NCc3ccc(N4CCN(C5COC5)CC4)cc3)nn2)cn1 [Example 2.10]	
3.8	CC(=O)N[C@H]1[C@@H]2CN(c3ccc(CNc4ccc(OCc5ccc(C(F)(F)F)nc5)nn4)cc3)C[C@@H]21 [Example 2.11]	
3.5	CC(=O)N1CCN(c2ccc(CNc3ccc(OCc4cnc(C(F)F)c(F)c4)nn3)cc2)CC1 [Example 2.12]	94.6
4	CC(=O)N1C[C@@H]2CN(c3ccc(CNc4ccc(OCc5ccc(C(F)(F)F)nc5)nn4)cc3)C[C@@H]2C1 [Example 2.13]	
4.4	CC(=O)N1C[C@@H]2CN(c3ccc(CNc4ccc(OCc5ccc(C(F)F)nc5)nn4)cc3)C[C@@H]2C1 [Example 2.14]	
2.2	CC(=O)N1CCN(c2ccc(CNc3ccc(OCc4ccc(C(F)(F)F)nc4)nn3)nc2)CC1 [Example 2.15]	
10.4	CC(=O)N1CCC2(CC1)CN(c1ccc(CNc3ccc(OCc4ccc(C(F)F)nc4)nn3)nc1)C2 [Example 2.16]	
5.2	CC(=O)N1CCC2(CC1)CN(c1ccc(CNc3ccc(OCc4ccc(C(F)(F)F)nc4)nn3)cn1)C2 [Example 2.17]	
9.2	CC(=O)N1CCC2(CC1)CN(c1ccc(CNc3ccc(OCc4ccc(C(F)F)nc4)nn3)cn1)C2 [Example 2.18]	
2.9	CC(=O)N1CC2CCC1CN2c1ccc(CNc2ccc(OCc3ccc(C(F)(F)F)nc3)nn2)cc1 (centres unmarked) [Example 2.20]	
2.4	CC(=O)N1CC2(C1)CN(c1ccc(CNc3ccc(OCc4ccc(C(F)(F)F)nc4)nn3)c(F)c1)C2 [Example 2.21]	
6.2	CC(=O)N1CCC2(CC1)CN(c1ccc(CNc3ccc(OCc4ccc(C(F)(F)F)nc4)nn3)cc1)C2 [Example 2.22]	
3.9	CC(=O)N1CC2CC1CN2c1ccc(CNc2ccc(OCc3ccc(C(F)(F)F)nc3)nn2)cc1 (centres unmarked) [Example 2.23]	
8.6	CC(=O)N1CC[C@@H]2CN(c3ccc(CNc4ccc(OCc5ccc(C(F)(F)F)nc5)nn4)cc3)C[C@@H]2CC1 [Example 4, 1-[(3aR,8aS)-2-(4-{[(6-{[6-(trifluoromethyl)pyridin-3-yl]methoxy}pyridazin-3-yl)amino]methyl}phenyl)-decahydropyrrolo[3,4-d]azepin-6-yl]ethan-1-one]	
7	CC(=O)N1C[C@@H]2[C@H](C1)[C@H]1CN(c3ccc(CNc4ccc(OCc5ccc(C(F)(F)F)nc5)nn4)cc3)C[C@@H]21 [Example 5, 1-((3aR,3bS,6aR,6bS)-5-(4-(((6-((6-(trifluoromethyl)pyridin-3-yl)methoxy)pyridazin-3-yl)amino)methyl)phenyl)octahydrocyclobuta[1,2-c:3,4-c′]dipyrrol-2(1H)-yl)ethan-1-one]	
	O=C(NC[C@@H]1[C@H]2CN(C(=O)OCc3cc(C(F)(F)F)cc(C(F)(F)F)c3)C[C@@H]12)c1ccc2[nH]nnc2c1 [reference compound]	40.7

SMILES	IC50 (Human ATX) [nM]	LPA reduction at 8 h (plasma LPA) [%]
CC(=O)N1CC2CCC(C1)N2c1ccc(CNc2ccc(OCc3ccc(C(F)(F)F)nc3)nn2)cc1 [Example 2.19]	2.4	
CC(=O)N1CCN(c2ccc(CNc3ccc(OCc4ccc(C(F)F)nc4)nn3)cc2)CC1 [Example 3, 1-[4-(4-{[(6-{[6-(Difluoromethyl)pyridin-3-yl]methoxy}pyridazin-3-yl)amino]methyl}-phenyl)piperazin-1-yl]ethan-1-one]	2.9	99.9
